# Data as given in patent US20240092758A1, “IMIDAZOLO INDAZOLE COMPOUNDS AS JAK INHIBITORS” (Theravance Biopharma R&D IP, LLC, priority 2021, published 2024).
# What was measured:
# JAK1 = JAK1 (Homo sapiens (Human), UniProt P23458); experiment: Biochemical JAK kinase assay (LanthaScreen), JAK1; conditions: for Ki: read-out: JAK1 pKi (converted)
# Protocol: (§1) A panel of four LanthaScreen JAK biochemical assays (JAK1, 2, 3 and Tyk2) were carried in a common kinase reaction buffer (50 mM HEPES, pH 7.5, 0.01% Brij-35, 10 mM MgCl2, and 1 mM EGTA). Recombinant GST-tagged JAK enzymes and a GFP-tagged STAT1 peptide substrate were obtained from Life Technologies.
# (§2) Serially diluted compounds were pre-incubated with each of the four JAK enzymes and the substrate in white 384-well microplates (Corning) at ambient temperature for 1 h. ATP was subsequently added to initiate the kinase reactions in 10 μL total volume, with 1% DMSO. The final enzyme concentrations for JAK1, 2, 3 and Tyk2 are 4.2 nM, 0.1 nM, 1 nM, and 0.25 nM respectively; the corresponding Km ATP concentrations used are 25 μM, 3 μM, 1.6 μM, and 10 μM; while the substrate concentration is 200 nM for all four assays. Kinase reactions were allowed to proceed for 1 hour at ambient temperature before a 10 μL preparation of EDTA (10 mM final concentration) and Tb-anti-pSTAT1 (pTyr701) antibody (Life Technologies, 2 nM final concentration) in TR-FRET dilution buffer (Life Technologies) was added. The plates were allowed to incubate at ambient temperature for 1 h before being read on the EnVision reader (Perkin Elmer). Emission ratio signals (520 nm/495 nm) were recorded and utilized to calculate the percent inhibition values based on DMSO and background controls.
# (§3) For dose-response analysis, percent inhibition data were plotted vs. compound concentrations, and IC50 values were determined from a 4-parameter robust fit model with the Prism software (GraphPad Software). Results were expressed as pIC50 (negative logarithm of IC50) and subsequently converted to pKi (negative logarithm of dissociation constant, Ki) using the Cheng-Prusoff equation.
# (§4) Test compounds having a lower Ki value or higher pKi value in the four JAK assays show greater inhibition of JAK activity.
# JAK2 = JAK2 (Homo sapiens (Human), UniProt O60674); experiment: Biochemical JAK kinase assay (LanthaScreen), JAK2; conditions: for Ki: read-out: JAK2 pKi (converted)
# Protocol: as §1, §2, §3, §4
# [1] = system: IL-13 induced STAT6 phosphorylation in BEAS-2B human lung epithelial cells; experiment: Cellular JAKI potency assay (BEAS-2B); type: cell-based; conditions: Homo sapiens, BEAS-2B, BEAS-2B cells, read-out: BEAS2B pIC50 (converted)
# Protocol: The JAKI cellular potency assay was carried out by measuring inhibition of interleukin-13 (IL-13, R&D Systems) induced STAT6 phosphorylation in BEAS-2B human lung epithelial cells (ATCC). BEAS-2B cells were grown at 37° C. in a 5% CO2 humidified incubator in 50% DMEM/50% F-12 medium (Life Technologies) supplemented with 10% FBS (Hyclone), 100 U/mL penicillin, 100 μg/mL streptomycin (Life Technologies), and 2 mM GlutaMAX (Life Technologies). On day 1 of the assay, cells were seeded at a 7,500 cells/well density in white poly-D-lysine-coated 384-well plates (Corning) with 25 μL medium and were allowed to adhere overnight in the incubator. On day 2 of the assay, the medium was removed and replaced with 12 μL of assay buffer (Hank's Balanced Salt Solution/HBSS, 25 mM HEPES, and 1 mg/ml bovine serum albumin/BSA) containing dose-responses of test compounds. Compounds were serially diluted in DMSO and then diluted another 1000-fold in media to bring the final DMSO concentration to 0.1%. Cells were incubated with test compounds at 37° C. for 1 h and followed by the addition of 12 μl of pre-warmed IL-13 (80 ng/mL in assay buffer) for stimulation. After incubating at 37° C. for 30 min, the assay buffer (containing compound and IL-13) was removed, and 10 μL of cell lysis buffer (25 mM HEPES, 0.1% SDS, 1% NP-40, 5 mM MgCl2, 1.3 mM EDTA, 1 mM EGTA, supplemented with Complete Ultra mini protease inhibitors and PhosSTOP from Roche Diagnostics). The plates were shaken at ambient temperature for 30 min before the addition of detection reagents. Levels of pSTAT6 were measured using the AlphaLISA SureFire Ultra pSTAT6 (Tyr641) assay kit from PerkinElmer. For dose-response analysis, percent inhibition data were plotted vs. compound concentrations, and IC50 values were determined from a 4-parameter robust fit model with the Graphpad Prism software. Results are expressed as the negative logarithm of the IC50 value, pIC50.
# Test compounds having a lower IC50 value or higher pIC50 value in this assay show greater inhibition of IL-13 induced STAT6 phosphorylation.
# Chain of JAK2 (O60674 whole entry): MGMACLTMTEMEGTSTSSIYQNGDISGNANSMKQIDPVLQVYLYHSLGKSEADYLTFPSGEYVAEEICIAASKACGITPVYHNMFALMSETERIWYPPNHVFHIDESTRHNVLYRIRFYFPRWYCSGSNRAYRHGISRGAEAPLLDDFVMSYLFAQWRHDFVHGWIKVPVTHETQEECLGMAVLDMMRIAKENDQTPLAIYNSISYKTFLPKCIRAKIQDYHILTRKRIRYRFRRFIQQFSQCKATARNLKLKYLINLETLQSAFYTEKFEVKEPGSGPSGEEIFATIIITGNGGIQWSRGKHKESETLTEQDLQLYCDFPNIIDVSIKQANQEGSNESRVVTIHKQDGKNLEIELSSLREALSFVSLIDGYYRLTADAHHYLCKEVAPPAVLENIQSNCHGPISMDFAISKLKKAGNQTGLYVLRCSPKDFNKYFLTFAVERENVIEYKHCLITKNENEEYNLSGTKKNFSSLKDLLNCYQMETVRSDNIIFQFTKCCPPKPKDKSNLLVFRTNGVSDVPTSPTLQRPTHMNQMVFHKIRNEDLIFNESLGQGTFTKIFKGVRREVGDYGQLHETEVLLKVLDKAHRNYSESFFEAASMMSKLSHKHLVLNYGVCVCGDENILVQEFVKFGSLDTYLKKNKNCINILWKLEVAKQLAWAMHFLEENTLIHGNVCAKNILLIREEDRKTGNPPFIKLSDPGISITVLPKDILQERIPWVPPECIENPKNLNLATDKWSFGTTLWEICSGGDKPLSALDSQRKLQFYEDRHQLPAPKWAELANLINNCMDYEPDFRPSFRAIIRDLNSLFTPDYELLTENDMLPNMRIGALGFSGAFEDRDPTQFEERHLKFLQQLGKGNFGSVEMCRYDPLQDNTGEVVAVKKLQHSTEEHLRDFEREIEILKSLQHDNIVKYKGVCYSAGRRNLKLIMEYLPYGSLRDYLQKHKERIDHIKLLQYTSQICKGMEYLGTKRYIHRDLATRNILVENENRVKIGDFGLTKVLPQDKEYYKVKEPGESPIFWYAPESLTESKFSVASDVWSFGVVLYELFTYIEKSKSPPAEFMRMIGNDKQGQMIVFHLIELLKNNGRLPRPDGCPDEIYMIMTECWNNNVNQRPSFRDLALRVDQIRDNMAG
# Chain of JAK1 (P23458 whole entry): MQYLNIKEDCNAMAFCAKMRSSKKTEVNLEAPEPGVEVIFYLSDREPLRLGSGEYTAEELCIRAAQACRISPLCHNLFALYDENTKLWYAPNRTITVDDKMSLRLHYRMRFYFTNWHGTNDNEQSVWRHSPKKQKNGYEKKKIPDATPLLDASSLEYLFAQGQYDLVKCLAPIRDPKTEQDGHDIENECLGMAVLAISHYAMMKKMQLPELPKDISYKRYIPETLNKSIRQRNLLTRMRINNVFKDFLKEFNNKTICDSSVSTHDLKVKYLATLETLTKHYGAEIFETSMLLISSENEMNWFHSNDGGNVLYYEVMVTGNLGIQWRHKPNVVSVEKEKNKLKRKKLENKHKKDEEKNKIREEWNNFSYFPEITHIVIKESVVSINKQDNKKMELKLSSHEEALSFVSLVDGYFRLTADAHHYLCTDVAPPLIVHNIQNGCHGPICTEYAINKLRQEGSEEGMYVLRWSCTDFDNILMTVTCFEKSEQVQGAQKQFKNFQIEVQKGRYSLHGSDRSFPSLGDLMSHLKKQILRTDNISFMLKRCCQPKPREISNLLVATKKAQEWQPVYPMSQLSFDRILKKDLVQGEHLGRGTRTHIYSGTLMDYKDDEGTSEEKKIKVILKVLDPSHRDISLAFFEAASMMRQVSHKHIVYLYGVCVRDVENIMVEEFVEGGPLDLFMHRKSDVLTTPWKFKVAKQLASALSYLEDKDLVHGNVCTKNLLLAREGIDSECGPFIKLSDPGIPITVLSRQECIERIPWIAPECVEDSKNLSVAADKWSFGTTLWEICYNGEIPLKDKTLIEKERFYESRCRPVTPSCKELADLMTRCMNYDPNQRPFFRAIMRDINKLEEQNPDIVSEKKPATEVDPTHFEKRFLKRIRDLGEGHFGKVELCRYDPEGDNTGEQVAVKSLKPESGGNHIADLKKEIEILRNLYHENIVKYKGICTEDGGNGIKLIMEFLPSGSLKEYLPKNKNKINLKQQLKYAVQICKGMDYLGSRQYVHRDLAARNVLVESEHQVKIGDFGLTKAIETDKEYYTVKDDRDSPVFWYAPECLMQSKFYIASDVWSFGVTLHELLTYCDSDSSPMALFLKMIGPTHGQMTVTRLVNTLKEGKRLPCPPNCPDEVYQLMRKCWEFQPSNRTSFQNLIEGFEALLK
SMILES,JAK1 pKi (JAK1),JAK2 pKi (JAK2),IC50 [1],Ki (JAK1),Ki (JAK2)
CCc1cc(O)ccc1-c1ccc2c(-c3nc(C4=CCN(C5CCC5)[C@H]4CO)c[nH]3)n[nH]c2c1F [Example 304],A (A represents a pKi value ≥10 (Ki≤0.1 nM)),A (A represents a pKi value ≥10 (Ki≤0.1 nM)),10 to 31.6 nM,–,–
CCc1cc(O)ccc1-c1ccc2c(-c3nc(C4=C(C)CCNC4)c[nH]3)n[nH]c2c1 [Example 232],–,–,3.16 to 10 nM,0.1 to 1 nM,0.1 to 1 nM
CCc1cc(O)ccc1-c1ccc2c(-c3nc(C4=CC[C@H](C)N(CCCO)C4)c[nH]3)n[nH]c2c1F [Example 258],–,–,10 to 31.6 nM,0.1 to 1 nM,0.1 to 1 nM
CCc1cc(O)ccc1-c1ccc2c(-c3nc(C4=CCCN(CCS(C)(=O)=O)C4)c[nH]3)n[nH]c2c1 [Example 87],–,A (A represents a pKi value ≥10 (Ki≤0.1 nM)),10 to 31.6 nM,0.1 to 1 nM,–
CCc1cc(O)ccc1-c1ccc2c(-c3nc(C4=C[C@H](CO)N(C5CCOCC5)C4)c[nH]3)n[nH]c2c1F [Example 274],A (A represents a pKi value ≥10 (Ki≤0.1 nM)),A (A represents a pKi value ≥10 (Ki≤0.1 nM)),10 to 31.6 nM,–,–
CCc1cc(O)ccc1-c1ccc2c(-c3nc(C4=CCN(CCS(=O)(=O)NC)CC4)c[nH]3)n[nH]c2c1F [Example 85],–,–,31.6 to 100 nM,0.1 to 1 nM,0.1 to 1 nM
CCCN1CC=C(c2c[nH]c(-c3n[nH]c4c(F)c(-c5ccc(O)cc5CC)ccc34)n2)C1 [Example 288],A (A represents a pKi value ≥10 (Ki≤0.1 nM)),A (A represents a pKi value ≥10 (Ki≤0.1 nM)),3.16 to 10 nM,–,–
CCc1cc(O)ccc1-c1ccc2c(-c3nc(C4=CCN(CCC(C)(C)O)CC4)c[nH]3)n[nH]c2c1 [Example 35],A (A represents a pKi value ≥10 (Ki≤0.1 nM)),A (A represents a pKi value ≥10 (Ki≤0.1 nM)),3.16 to 10 nM,–,–
CCc1cc(O)ccc1-c1ccc2c(-c3nc(C4=CCN(Cc5cn[nH]c5)C4)c[nH]3)n[nH]c2c1F [Example 145],A (A represents a pKi value ≥10 (Ki≤0.1 nM)),A (A represents a pKi value ≥10 (Ki≤0.1 nM)),10 to 31.6 nM,–,–
CCc1cc(O)ccc1-c1ccc2c(-c3nc(C4=CC[C@H](C)N(CC(=O)NC)C4)c[nH]3)n[nH]c2c1F [Example 275],–,–,10 to 31.6 nM,0.1 to 1 nM,0.1 to 1 nM
CCc1cc(O)ccc1-c1ccc2c(-c3nc(C4=CCNC(C(C)C)C4)c[nH]3)n[nH]c2c1F (stereo not drawn) [Example 368],–,–,31.6 to 100 nM,0.1 to 1 nM,0.1 to 1 nM
CCc1cc(O)ccc1-c1ccc2c(-c3nc(C4=CCCN(CCSC)C4)c[nH]3)n[nH]c2c1 [Example 86],–,–,10 to 31.6 nM,0.1 to 1 nM,0.1 to 1 nM
CCc1cc(O)ccc1-c1ccc2c(-c3nc(C4=CC[C@H](C)N(C(C)CO)C4)c[nH]3)n[nH]c2c1F (stereo partly drawn) [Example 259],–,–,10 to 31.6 nM,0.1 to 1 nM,0.1 to 1 nM
CCc1cc(O)ccc1-c1ccc2c(-c3nc(C4=CCN(Cc5cn[nH]c5)CC4)c[nH]3)n[nH]c2c1 [Example 132],A (A represents a pKi value ≥10 (Ki≤0.1 nM)),A (A represents a pKi value ≥10 (Ki≤0.1 nM)),3.16 to 10 nM,–,–
CCc1cc(O)ccc1-c1ccc2c(-c3nc(C4=CCCN(CCN5CCNC5=O)C4)c[nH]3)n[nH]c2c1F [Example 125],–,–,31.6 to 100 nM,0.1 to 1 nM,0.1 to 1 nM
"CCc1cc(O)ccc1-c1ccc2c(-c3nc(C4=CCCN(C5CC(O)C5)C4)c[nH]3)n[nH]c2c1F (stereo not drawn) [Compound 10, 3-ethyl-4-(7-fluoro-3-(4-(1-(3-hydroxycyclobutyl)-1,2,5,6-tetrahydropyridin-3-yl)-1H-imidazol-2-yl)-1H-indazol-6-yl)phenol]",–,–,10 to 31.6 nM,0.1 to 1 nM,0.1 to 1 nM

SMILES,JAK1 pKi (JAK1),JAK2 pKi (JAK2),IC50 [1],Ki (JAK1),Ki (JAK2)
CCc1cc(O)ccc1-c1ccc2c(-c3nc(C4=CCN(C(=O)OC)C4)c[nH]3)n[nH]c2c1 [Example 168],–,–,10 to 31.6 nM,0.1 to 1 nM,0.1 to 1 nM
CCc1cc(O)ccc1-c1ccc2c(-c3nc(C4=CC5COCC(C4)N5)c[nH]3)n[nH]c2c1F (stereo not drawn) [Example 228],–,–,10 to 31.6 nM,0.1 to 1 nM,0.1 to 1 nM
CCc1cc(O)ccc1-c1ccc2c(-c3nc(C4=CCN(CCSC)CC4)c[nH]3)n[nH]c2c1 [Example 76],–,–,10 to 31.6 nM,0.1 to 1 nM,0.1 to 1 nM
CCc1cc(O)ccc1-c1ccc2c(-c3nc(C4=CCNC5(CC5)C4)c[nH]3)n[nH]c2c1 [Example 343],–,–,10 to 31.6 nM,0.1 to 1 nM,0.1 to 1 nM
CCc1cc(O)ccc1-c1ccc2c(-c3nc(C4=CCCN(C[C@H](C)CO)C4)c[nH]3)n[nH]c2c1F [Example 48],–,–,10 to 31.6 nM,0.1 to 1 nM,0.1 to 1 nM
CCc1cc(O)ccc1-c1ccc2c(-c3nc(C4=CCCN(CCS(=O)(=O)NC)C4)c[nH]3)n[nH]c2c1 [Example 89],–,A (A represents a pKi value ≥10 (Ki≤0.1 nM)),10 to 31.6 nM,0.1 to 1 nM,–
CCc1cc(O)ccc1-c1ccc2c(-c3nc(C4=CCN(CCNS(C)(=O)=O)C4)c[nH]3)n[nH]c2c1F [Example 115],–,A (A represents a pKi value ≥10 (Ki≤0.1 nM)),10 to 31.6 nM,0.1 to 1 nM,–
CCc1cc(O)ccc1-c1ccc2c(-c3nc(C4=CC(c5ccccc5)NC4)c[nH]3)n[nH]c2c1F (stereo not drawn) [Example 372],–,–,31.6 to 100 nM,1 to 10 nM,1 to 10 nM
CCc1cc(O)ccc1-c1ccc2c(-c3nc(C4=CCCN(C(C)C5CC(O)C5)C4)c[nH]3)n[nH]c2c1F (stereo not drawn) [Example 66],–,A (A represents a pKi value ≥10 (Ki≤0.1 nM)),10 to 31.6 nM,0.1 to 1 nM,–
CCc1cc(O)ccc1-c1ccc2c(-c3nc(C4=CCN(C(=O)CNCCOC)C4)c[nH]3)n[nH]c2c1F [Example 362],–,A (A represents a pKi value ≥10 (Ki≤0.1 nM)),31.6 to 100 nM,0.1 to 1 nM,–
CCc1cc(O)ccc1-c1ccc2c(-c3nc(C4=CCN(Cc5ccccc5)CC4)c[nH]3)n[nH]c2c1F [Example 134],–,–,100 to 316 nM,1 to 10 nM,1 to 10 nM
CCc1cc(O)ccc1-c1ccc2c(-c3nc(C4=CCN(Cc5cnc[nH]5)CC4)c[nH]3)n[nH]c2c1 [Example 131],A (A represents a pKi value ≥10 (Ki≤0.1 nM)),A (A represents a pKi value ≥10 (Ki≤0.1 nM)),10 to 31.6 nM,–,–
CCc1cc(O)ccc1-c1ccc2c(-c3nc(C4=CCN(CCCOC)CC4)c[nH]3)n[nH]c2c1F [Example 59],–,–,10 to 31.6 nM,0.1 to 1 nM,0.1 to 1 nM
CCc1cc(O)ccc1-c1ccc2c(-c3nc(C4=C[C@H](CO)N(CCS(=O)(=O)NC)C4)c[nH]3)n[nH]c2c1F [Example 280],–,A (A represents a pKi value ≥10 (Ki≤0.1 nM)),100 to 316 nM,–,–
CCc1cc(O)ccc1-c1ccc2c(-c3nc(C4=CCCN(C(=O)[C@@H](N)C(C)(C)O)C4)c[nH]3)n[nH]c2c1 [Example 165],–,–,10 to 31.6 nM,0.1 to 1 nM,–
CCc1cc(O)ccc1-c1ccc2c(-c3nc(C4=C[C@H](CO)N(CCS(C)(=O)=O)C4)c[nH]3)n[nH]c2c1F [Example 279],–,–,31.6 to 100 nM,0.1 to 1 nM,–
